One test deals with HBsAg. Nature of the test: microbe, parasite or virus in culture. The following applies: Hepatitis B virus, read-out: average inhibitory rate for HBsAg.
The subject of another test is HBeAg. Nature of the test: microbe, parasite or virus in culture. Conditions: Hepatitis B virus, read-out: average inhibitory rate for HBeAg.

Molecules are shown by their SMILES.

On to `CC(C)=CCC(OC(=O)C=C(C)C)C1=CC(=O)c2c(O)ccc(O)c2C1=O` (stereo not drawn) [β,β-dimethylacrylshikonin], for which the results for the inhibition at 30 µg/mL with HBsAg and in the test with HBeAg were 96.3% and 91.6%, respectively.

The values above are taken from patent US20050222258A1, “Pharmaceuticals comprising shikonins as active constituent” (priority 2003, published 2005).
